According to PubChem BioAssay (NCI):
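Assay format: 96-well plates, 48-hour exposure. Definition used: TGI = concentration required for complete inhibition of growth.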

Key:
Assay in all cases: NCI anticancer screen, dose series, 48 h
A498 renal = test system: A498 renal
ACHN renal = test system: ACHN renal
BT-549 breast = test system: BT-549 breast
HCT-15 colon = test system: HCT-15 colon
MALME-3M melanoma = test system: MALME-3M melanoma
MDA-N = test system: MDA-N
NCI-H226 lung = test system: NCI-H226 lung
OVCAR-4 ovarian = test system: OVCAR-4 ovarian
SF-539 CNS = test system: SF-539 CNS
SK-MEL-28 melanoma = test system: SK-MEL-28 melanoma
SK-MEL-5 melanoma = test system: SK-MEL-5 melanoma
SNB-19 CNS = test system: SNB-19 CNS
SW-620 colon = test system: SW-620 colon
T-47D breast = test system: T-47D breast
UACC-62 melanoma = test system: UACC-62 melanoma
HOP-62 NSCLC = test system: HOP-62 NSCLC

Compound | TGI (A498 renal) [µM] | TGI (ACHN renal) [µM] | TGI (BT-549 breast) [µM] | TGI (HCT-15 colon) [µM] | TGI (MALME-3M melanoma) [µM] | TGI (MDA-N) [µM] | TGI (NCI-H226 lung) [µM] | TGI (OVCAR-4 ovarian) [µM] | TGI (SF-539 CNS) [µM] | TGI (SK-MEL-28 melanoma) [µM] | TGI (SK-MEL-5 melanoma) [µM] | TGI (SNB-19 CNS) [µM] | TGI (SW-620 colon) [µM] | TGI (T-47D breast) [µM] | TGI (UACC-62 melanoma) [µM] | TGI (HOP-62 NSCLC) [µM]
CC12CC(C#N)(C#N)C(C#N)(CO1)C(=N)O2 (stereo not given) | > 100 | > 100 | > 100 | > 100 | 90.8 | > 100 | > 100 | > 100 | > 100 | > 100 | > 100 | > 100 | > 100 | > 100 | > 100 | 
COc1ccc(/C=N/n2c(-c3ccccc3)n[nH]c2=O)cc1 | > 100 | > 100 | > 100 | > 100 | > 100 | > 100 | > 100 | > 100 | > 100 | > 100 |  | > 100 | > 100 | > 100 | > 100 | > 100
Cn1c(N)c2c3c(sc2nc1=O)CCCC3 | > 75 | > 75 | > 75 | > 75 | > 75 | > 75 | > 75 | > 75 |  | > 75 | > 75 | > 75 | > 75 | > 75 | > 75 | > 75
CC(C)C[C@H]1[C@@H](OCc2ccccc2)COS(=O)N1[C@H](C)c1ccccc1 (stereo not given in full) | 87.2 | > 100 | > 100 | > 100 | 48.3 | > 100 | 36 |  |  | > 100 | 23.3 | > 100 | > 100 | > 100 | > 100 | 67.4
Cc1ccsc1/C=N/Nc1ccc2ccccc2n1 | > 100 | > 100 | > 100 | > 100 |  | > 100 | > 100 | > 100 |  | > 100 | 13.2 | > 100 | > 100 | > 100 | > 100 | 68.8
COC(=O)c1c(O)ccc2c1c1c(n2Cc2ccc(Cl)cc2Cl)C(=O)c2ccccc2C1 | > 100 |  | > 100 | > 100 | > 100 | > 100 | 73.2 | 70.6 | > 100 | > 100 | > 100 | > 100 | > 100 | > 100 | > 100 | > 100
Cc1cc(C)nc(NS(=O)(=O)c2ccc(NNC(=O)c3cccc4c(=O)c5ccccc5[nH]c34)cc2)n1 |  | > 100 | > 100 | > 100 | > 100 | > 100 | > 100 | > 100 | > 100 | 82.8 | > 100 | > 100 | > 100 | > 100 | > 100 | > 100
CCOC(=O)c1cc(C2(O)CCN(CC(C)CC)C2=O)c(-c2cc(C)no2)[nH]1 (stereo not given) | > 100 |  | > 100 | > 100 | > 100 | > 100 | > 100 | > 100 | > 100 | > 100 | > 100 | > 100 | > 100 | > 100 | > 100 | > 100
CN1CCN(CN2C(=O)C3C4C=CC(C3C2=O)C2C(=O)N(CN3CCN(C)CC3)C(=O)C42)CC1 (stereo not given) |  | > 100 | > 100 | > 100 | > 92 | > 100 | > 100 | > 100 | > 83.3 | > 58 |  | > 100 | 7.58 | > 100 | > 56.9 | > 87.3
CC(C)(C)C(=O)OC(N)/C=C/c1ccccc1 (stereo not given) | > 100 | > 100 | > 100 | > 100 | > 100 | > 100 | > 100 | > 100 | > 100 | > 100 | > 100 |  | > 100 | > 100 | > 100 | > 100
COc1ccc(OC)c(C2Cc3cnc4nc(N)nc(N)c4c3C2)c1 (stereo not given) | 33 | > 100 | 52.6 | > 100 | 47.3 | 83.7 |  | 53.8 | 28 | > 100 | > 100 | > 100 | > 100 | 65.5 | 51.5 | > 100
N#CC1(C#N)C2CCCCC23OC(=N)C1(C#N)C(c1ccccc1)O3 (stereo not given) | 48.9 | > 100 | 34.7 | 28.6 | 34.5 | 27.9 | > 100 |  | 42.1 |  | 33 | > 100 | > 100 | 57.9 | 49.4 | 
S=c1[nH]n2c(COc3cccc(OCc4nnc5sc(=S)[nH]n45)c3)nnc2s1 | > 100 | > 100 | > 100 | > 100 | > 100 | > 100 | > 100 | > 100 | > 100 | > 100 |  | > 100 | > 100 | > 100 | > 100 | > 100
Cc1ccc(NC(=S)NNC(=O)c2cc(-c3ccccc3)nc3ccccc23)cc1 |  | 31.3 | 32.7 | 25.9 | 34.6 | 12.7 | 39.7 | 35.6 | 30.1 | 20.1 | 35.3 | 42.4 | 25.9 | 21.3 | 30.6 | 27.8
O=c1cc(-c2ccccc2)[nH]c2c(S)cccc12 |  | > 100 | > 100 | > 100 | > 100 | > 100 | 99.7 | > 100 | > 100 | > 100 | > 100 | > 100 | > 100 | > 100 | > 100 | > 100
C[C@@]12CCC3C1C=C1C(=O)c4cc(O)ccc4C(=O)[C@]1(O2)[C@@]3(C)C=O | 9.59 | 17.1 | 8.69 | 11.5 |  | 12.6 | 44.5 | 15.7 | 12.3 |  | 16.1 | 18.4 | 12.9 | 14 | 16.6 | 20.2

Compound | TGI (A498 renal) [µM] | TGI (ACHN renal) [µM] | TGI (BT-549 breast) [µM] | TGI (HCT-15 colon) [µM] | TGI (MALME-3M melanoma) [µM] | TGI (MDA-N) [µM] | TGI (NCI-H226 lung) [µM] | TGI (OVCAR-4 ovarian) [µM] | TGI (SF-539 CNS) [µM] | TGI (SK-MEL-28 melanoma) [µM] | TGI (SK-MEL-5 melanoma) [µM] | TGI (SNB-19 CNS) [µM] | TGI (SW-620 colon) [µM] | TGI (T-47D breast) [µM] | TGI (UACC-62 melanoma) [µM] | TGI (HOP-62 NSCLC) [µM]
CSc1nncc2[nH]c(C)nc12 | > 100 | > 100 | > 100 | > 100 | > 100 | > 100 | > 100 | > 100 | > 100 | > 100 | > 100 |  | > 100 | > 100 | > 100 | > 100
CC(C)(C)NC(=O)N1N=C(c2ccccc2)C1c1ccccc1 (stereo not given) | > 100 | > 100 | > 100 | 75.2 | 45.6 | > 100 | > 100 | > 100 | 41.4 | > 100 | 47 | > 100 | > 100 | > 100 | > 100 | 
O=C1NN=C2C=C(c3ccc(Cl)cc3)CC(c3cccc(Cl)c3)C12 (stereo not given) |  | 48.2 | > 100 | 32.8 | > 100 | 65.3 | 60.6 | 66.5 | 55.7 |  | 39.9 | 36.1 | > 100 | > 100 | 33.6 | > 100
CCO/C=N/NC(=O)CSc1nc2ccc(I)cc2c(=O)n1Cc1ccccc1 | > 100 | > 100 | > 100 | > 100 |  | > 100 | > 100 | > 100 | > 100 | > 100 | > 100 | > 100 | > 100 | > 100 | > 100 | > 100
CC1(C)OC(=C(C#N)C#N)C(C#N)=C1/C=C/c1ccncc1 | 19.4 | 3.39 | 3.18 | 3.79 | 6.31 | 7.27 | 4.65 | 8.91 | 3.49 | 5.43 | 14.4 | 6.16 | 4.41 | 6.26 | 3.93 | 
COc1ccc(CCN=C2OCc3ccccc32)cc1OC | > 100 | > 100 | > 100 | > 100 | > 100 | > 100 | > 100 | > 100 | 63.2 | > 100 | > 100 | > 100 | > 100 | 86.6 | > 100 | 
CCOC(=O)c1ccc(C(=O)/C(C#N)=C2\CCCN2C)[nH]1 | > 100 | > 100 | > 100 | > 100 | > 100 | > 100 | > 100 | > 100 |  | > 100 | > 100 | > 100 | > 100 | > 100 | > 100 | > 100
O=P(O)(Cc1ccccc1)c1ccccc1-c1ccccc1 |  | > 100 | > 100 | > 100 | > 100 | > 100 | > 100 | > 100 | > 100 | > 100 | > 100 | > 100 | > 100 | > 100 | > 100 | > 100
COc1ccc(-c2nc(SCC(=O)N/N=C/c3ccc(O)c(OC)c3)[nH]c2-c2ccc(OC)cc2)cc1 | 33.2 | 32.5 | 44.1 | 82.8 | 81.8 | 52.3 |  | > 100 | 36.5 | 74.8 | 31.7 | > 100 | > 100 | > 100 | 27.4 | 71.7
CC(=O)Nc1ccc2cc(C)c(=O)[nH]c2n1 | > 100 | > 100 | > 100 | > 100 | > 100 | > 100 |  | > 100 | > 100 | > 100 | > 100 | > 100 | > 100 | > 100 | > 100 | 
Oc1ccc(-c2nc(-c3ccc(F)cc3)c(-c3ccc4ccccc4n3)[nH]2)cc1 |  | 24.9 | 36.6 | 23.6 | 28.3 | 27.9 | 28.6 | 26.3 |  | 37.7 | 17.7 | 37.1 | 29.1 | 25.1 | 23.6 | 33.4
Cn1c(=O)c2c(no[n+]2[O-])c2ccccc21 | 70.2 | 83 | 34.2 | 29.5 | 29 | 87.2 | 40.4 | 45.5 | > 100 |  | 26 | 84.2 | 41.2 | 68.3 | 31.8 | 35.9
C[C@@H]1C[C@](O)([C@@H](C)Cl)C(=O)O[C@@H]2CCN3CC=C(COC(=O)[C@]1(C)O)[C@H]23 | > 100 | > 10 | > 100 | > 100 |  | > 100 | > 100 | > 100 | > 100 | > 100 | > 100 | > 10 | > 100 | > 100 | > 100 | > 100
O=C(/C=C/C=C/c1ccccc1)c1ccc2c(c1)CCCC2 | > 100 | > 100 | 77.4 | > 100 |  | 62.8 | 90.9 | > 100 | > 100 | > 100 | > 100 | > 100 | > 100 | 93.9 | > 100 | > 100
O=C(NC(CO)Cc1ccc(Oc2cc(CC(CO)NC(=O)OCc3ccccc3)ccc2OC(=O)OCc2ccccc2)cc1)OCc1ccccc1 (stereo not given) | 50.2 | 62.7 | 38.7 | > 100 | 31.5 | 50.3 | 40.7 | 65.3 | 38.5 | 42.9 |  | > 100 | > 100 | 23.1 |  | 52.6
